One test concerns the target T1, hPIV-N51 (139-189) (Human parainfluenza 3 virus, UniProt P06828).
T1 construct: hPIV-N51 (139-189)
Description: SPR affinity to hPIV-N51 coupled on CM5 chip. It is filed as binding. Here is the method: hMPV and hPIV were two viruses having a typical Class I fusion protein-F protein. An F protein precursor F0 was cracked into F1 and F2 subunits. […] When the compound flowed through a chip surface, changes in an SPR signal were monitored in real time, binding and dissociation processes were recorded, and a binding rate constant (ka) and a dissociation rate constant (kd) were further obtained through kinetic analysis, thereby calculating an equilibrium dissociation constant (KD=kd/ka).
A CM5 chip with a catalog number 29149603, an amino coupling reagent kit with a catalog number BR100050, HBS-EP+Buffer (10×), sodium acetate (pH 4.0), and a 10 mM glycine-HCl buffer (pH 2.0) were all purchased from GE Health.
CM5 chip coupling: Channels 2 and 4 of the CM5 chip were activated for 7 min by using a freshly-prepared mixture of 50 mM Hydroxy succinimide (NHS) and 200 mM 1-(3-Dimethylaminopropyl)-3-ethylcarbodiimide (EDC) according to 1:1; and then, hMPV-N46 or hPIV-N51 was diluted and dissolved with sodium acetate with 4.0 pH to a concentration of 30 μM, with a flow rate of 10 μl/min and time of 600 s. An experimental buffer was HBS-EP+buffer (1×). Finally, the chip was blocked with 1 M ethanolamine. The instrument was set to a temperature of 25° C.
Affinity detection: the buffer used in the experiment was HBS-EP+buffer (1×), and a multi-cycle dynamic mode was used. Channels 1 and 3 of the chip served as blank reference channels; polypeptides to be detected sequentially flowed through Channels 2 and 4 at concentrations of 0 μM, 0.04 µM, 0.12 µM, 0.37 μM, 1.11 µM, 3.33 µM, 10 µM, and 30 μM; the flow rate was 30 μl/min, binding was performed for 180 s, and dissociation was performed for 120 s. Finally, the chip was regenerated by injecting 10 mM glycine (pH 2.0). The instrument was set to a temperature of 25° C.

For a further test, the system named is hMPV A2. It is filed as cell-based. Particulars: Vero cells, plaque reduction. The protocol: (§1) African green monkey kidney cells (Vero) were sourced from the ATCC, with catalog number CCL-81. The cells were cultured in a DMEM culture solution in which 10% fetal bovine serum, 1% non-essential amino acids, 1% sodium pyruvate, 1% L-glutamine, 100 U/ml penicillin, and 100 μg/ml streptomycin were added.
(§2) A hMPV plaque experiment culture medium consisted of an Opti-MEM culture solution added with 1% non-essential amino acids, 100 U/mL penicillin, and 100 μg/mL streptomycin.
(§3) hMPV virus strains A2 and B1 were constructed by WuXi App Tec.
(§4) This study used a plaque reduction experiment to detect the in-vitro activity of a test sample against the hMPV virus strains A2 and B1.
(§5) The test sample and an experimental system were tested at 8 concentrations in duplicated wells. The Vero cells were digested with trypsin and then diluted to a concentration of 400,000 cells per milliliter by using a cell culture solution containing 2% serum. The diluted cells were added to a 96-well cell test board, with 100 μL per well, corresponding to 40000 cells per well. The cells were cultured overnight in a 37° C. incubator with 5% CO2.
(§6) On the second day, the test sample was diluted in an experimental culture medium at a fold ratio. The sample diluted at a fold ratio and an equal volume of virus (approximately 200 PFU per well) were well mixed and incubated at 33° C. in 5% CO2 for 1 h. Then, the culture solution in the 96-well cell test board was discarded, the sample virus mixed solution (100 μL) was added to the 96-well cell culture plate, and incubated at 37° C. in 5% CO2 for 2 hours. After 2 h, the sample virus mixed solution was discarded, 200 μL of an experiment culture medium containing the test sample with a corresponding concentration was added, and the culture solution contained 0.8% CMC and 5 μg/ml trypsin. A final concentration of DMSO in the culture solution was 0.5%. A system control antibody was directly added to the experiment culture solution containing 0.8% CMC and 5 μg/ml trypsin. A cell control (cells, without compound treatment or viral infection) and a viral control (cell infection virus, without compound treatment) were set. The cells were cultured for 1 day in the 33° C. incubator with 5% CO2.
(§7) The cells were fixed with 4% paraformaldehyde, and then permeabilization was performed with 0.5% Triton X-100. After the plate was washed with DPBS, a hMPV specific antibody (1:2000 dilution) was added and incubated at 37° C. for 1.5 h. Then, a secondary antibody (1:1000 dilution) was added and incubated at 37° C. for 1 hour. The secondary antibody was discarded, a TrueBlue solution was added, dyeing was performed for approximately 10 minutes; and the plate was washed with running water and then air-dried, and the number of spots in each well was counted by using a microplate imaging counter.
(§8) Raw data was used for analyzing the antiviral activity of the test samples. A calculation formula was shown as follows.
(§9) % inhibition rate=100−(sample value-cell control average value)/(virus control average value-cell control average value)×100
(§10) Non-linear fitting analysis was performed on the inhibition rate of the sample by using GraphPad Prism (version 10), so as to calculate an EC50 value for the sample. A fitting formula was log (inhibitor) vs. response-Variable slope (four parameters).

Another test relates to hMPV B1. The class given is cell-based. The following applies: Vero cells, plaque reduction. The protocol:
as §1, §2, §3, §4, §5, §6, §7, §8, §9, §10

The values below come from patent US20260250325A1, “Antiviral Polypeptide Membrane Fusion Inhibitor, and Preparation Method and Application Thereof” (priority 2025, published 2026).

Where a SMILES comes first, the peptide text is derived from it. The star is where a group is joined. Succinyl(4-O-cholesteryl) = CC(C)CCC[C@@H](C)[C@H]1CC[C@H]2[C@@H]3CC=C4C[C@@H](OC(=O)CCC(=O)*)CC[C@]4(C)[C@H]3CC[C@]12C

T1 sequence (P06828 139-189): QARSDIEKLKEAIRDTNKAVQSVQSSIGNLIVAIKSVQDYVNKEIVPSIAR

As usually defined, the Kd is the concentration at which binding is half-saturated. Read a low Kd as higher affinity. For orientation: EC50 means the concentration needed to bring the measured effect to its halfway point. A low value points to an effect from little substance. In turn, `CC[C@H](C)[C@H](NC(=O)[C@H](CCCCN)NC(=O)[C@H](CCCCN)NC(=O)[C@H](CC(C)C)NC(=O)[C@H](CO)NC(=O)[C@H](CCC(=O)O)NC(=O)[C@H](CCC(=O)O)NC(=O)[C@@H](NC(=O)[C@H](CCCCN)NC(=O)[C@H](CCCCN)NC(=O)[C@H](CC(N)=O)NC(=O)[C@@H](NC(=O)[C@H](CCC(=O)O)NC(=O)[C@H](CCC(=O)O)NC(=O)[C@@H](NC(=O)[C@H](CCCCN)NC(=O)[C@H](CCCCN)NC(=O)[C@H](CC(=O)O)NC(=O)[C@H](Cc1ccccc1)NC(=O)[C@H](CCC(=O)O)NC(=O)[C@H](CC(=O)O)NC(=O)[C@H](CO)NC(C)=O)[C@@H](C)CC)C(C)C)[C@@H](C)CC)C(=O)N[C@@H](CCC(=O)O)C(=O)N[C@@H](CCC(=O)O)C(=O)N[C@@H](CO)C(=O)N[C@@H](CC(=O)O)C(=O)N[C@@H](CCCCN)C(=O)N[C@@H](CCCCN)C(=O)N[C@@H](CC(C)C)C(=O)NCC(=O)N[C@@H](CO)C(=O)NCC(=O)N[C@@H](CO)C(=O)NCC(=O)N[C@@H](CCCCNC(=O)CCC(=O)O[C@H]1CC[C@@]2(C)C(=CC[C@H]3[C@@H]4CC[C@H]([C@H](C)CCCC(C)C)[C@@]4(C)CC[C@@H]32)C1)C(N)=O` [Compound 20] (Ac-SDEFDKKIEEVNKKIEESLKKIEESDKKLGSGSGK(Succinyl(4-O-cholesteryl))-NH2) showed a dissociation constant (Kd) on hPIV-N51 (139-189) of 6800 nM. Moreover, the figures for the half-maximal effective concentration (EC50) with hMPV A2 and with hMPV B1 were 7.47 nM and 4.27 nM, respectively.
Turning to “Ac-FDEEISQVNEKINQSLAFIRKSDELLHNVNAGKSTTEAAAKK(Succinyl(4-O-cholesteryl))-NH2 [Compound 26]”, the Kd at hPIV-N51 (139-189) worked out at 2580 nM. For the same molecule, the EC50 came out at 103 nM in the test with hMPV A2 and 2.85 nM in the test on hMPV B1.
On to `CC[C@H](C)[C@H](NC(=O)[C@H](CCCCN)NC(=O)[C@H](CCCCN)NC(=O)[C@H](CC(C)C)NC(=O)[C@H](CO)NC(=O)[C@H](CCC(=O)O)NC(=O)[C@H](CCC(=O)O)NC(=O)[C@@H](NC(=O)[C@H](CCCCN)NC(=O)[C@H](CCCCN)NC(=O)[C@H](CC(N)=O)NC(=O)[C@@H](NC(=O)[C@H](CCC(=O)O)NC(=O)[C@H](CCC(=O)O)NC(=O)[C@@H](NC(=O)[C@H](CCCCN)NC(=O)[C@H](CCCCN)NC(=O)[C@H](CC(=O)O)NC(=O)[C@H](Cc1ccccc1)NC(=O)[C@H](CCC(=O)O)NC(=O)[C@H](CC(=O)O)NC(=O)[C@H](CO)NC(C)=O)[C@@H](C)CC)C(C)C)[C@@H](C)CC)C(=O)N[C@@H](CCC(=O)O)C(=O)N[C@@H](CCC(=O)O)C(=O)N[C@@H](CO)C(=O)N[C@@H](CC(=O)O)C(=O)N[C@@H](CCCCN)C(=O)N[C@@H](CCCCN)C(=O)N[C@@H](CC(C)C)C(=O)N[C@@H](CCC(=O)O)C(=O)N[C@@H](C)C(=O)N[C@@H](C)C(=O)N[C@@H](C)C(=O)N[C@@H](CCCCN)C(=O)N[C@@H](CCCCNC(=O)CCC(=O)O[C@H]1CC[C@@]2(C)C(=CC[C@H]3[C@@H]4CC[C@H]([C@H](C)CCCC(C)C)[C@@]4(C)CC[C@@H]32)C1)C(N)=O` [Compound 16] (Ac-SDEFDKKIEEVNKKIEESLKKIEESDKKLEAAAKK(Succinyl(4-O-cholesteryl))-NH2), for which binding at hPIV-N51 (139-189) was put at a Kd of 5400 nM. Also, the concentration for a half-maximal effect (EC50) amounted to 7.35 nM in the test on hMPV A2 and 4.5 nM in the test on hMPV B1.
Take `CC[C@H](C)[C@H](NC(=O)[C@H](CCCCN)NC(=O)[C@H](CCC(=O)O)NC(=O)[C@H](CC(C)C)NC(=O)[C@H](CO)NC(=O)[C@H](CCC(N)=O)NC(=O)[C@H](CC(N)=O)NC(=O)[C@@H](NC(=O)[C@H](CCCCN)NC(=O)[C@H](CCC(=O)O)NC(=O)[C@H](CC(N)=O)NC(=O)[C@@H](NC(=O)[C@H](CCC(N)=O)NC(=O)[C@H](CO)NC(=O)[C@H](C)NC(=O)[C@H](CC(=O)O)NC(=O)[C@H](Cc1ccccc1)NC(=O)[C@@H](NC(=O)[C@H](CC(C)C)NC(=O)[C@H](CCC(=O)O)NC(=O)[C@H](CC(=O)O)NC(=O)[C@H](Cc1ccc(O)cc1)NC(C)=O)C(C)C)C(C)C)[C@@H](C)CC)C(=O)N[C@@H](CCCNC(=N)N)C(=O)N[C@@H](CCCCN)C(=O)N[C@@H](CO)C(=O)N[C@@H](CC(=O)O)C(=O)N[C@@H](CCC(=O)O)C(=O)N[C@@H](CC(C)C)C(=O)N[C@@H](CC(C)C)C(=O)N[C@@H](Cc1c[nH]cn1)C(=O)N[C@@H](CC(N)=O)C(=O)N[C@H](C(=O)N[C@@H](CCC(=O)O)C(=O)N[C@@H](C)C(=O)N[C@@H](C)C(=O)N[C@@H](C)C(=O)N[C@@H](CCCCN)C(=O)N[C@@H](CCCCNC(=O)CCC(=O)O[C@H]1CC[C@@]2(C)C(=CC[C@H]3[C@@H]4CC[C@H]([C@H](C)CCCC(C)C)[C@@]4(C)CC[C@@H]32)C1)C(N)=O)C(C)C` [Compound 30] (Ac-YDELVFDASQVNEKINQSLEKIRKSDELLHNVEAAAKK(Succinyl(4-O-cholesteryl))-NH2): the Kd at hPIV-N51 (139-189) is 1020 nM. Also, the figures for the EC50 with hMPV A2 and in the test on hMPV B1 were 94.8 nM and 51.3 nM, respectively.
Molecule `CC[C@H](C)[C@H](NC(=O)[C@H](CCCCN)NC(=O)[C@H](CCCCN)NC(=O)[C@H](CC(C)C)NC(=O)[C@H](CO)NC(=O)[C@H](CCC(=O)O)NC(=O)[C@H](CCC(=O)O)NC(=O)[C@@H](NC(=O)[C@H](CCCCN)NC(=O)[C@H](CCCCN)NC(=O)[C@H](CC(N)=O)NC(=O)[C@@H](NC(=O)[C@H](CCC(=O)O)NC(=O)[C@H](CCC(=O)O)NC(=O)[C@@H](NC(=O)[C@H](CCCCN)NC(=O)[C@H](CCCCN)NC(=O)[C@H](CC(=O)O)NC(=O)[C@H](Cc1ccccc1)NC(=O)[C@H](CCC(=O)O)NC(=O)[C@H](CC(=O)O)NC(=O)[C@H](Cc1c[nH]c2ccccc12)NC(C)=O)[C@@H](C)CC)C(C)C)[C@@H](C)CC)C(=O)N[C@@H](CCC(=O)O)C(=O)N[C@@H](CCC(=O)O)C(=O)N[C@@H](CO)C(=O)N[C@@H](CC(=O)O)C(=O)N[C@@H](CCCCN)C(=O)N[C@@H](CCCCN)C(=O)N[C@@H](CC(C)C)C(=O)N[C@@H](CCC(=O)O)C(=O)N[C@@H](C)C(=O)N[C@@H](C)C(=O)N[C@@H](C)C(=O)N[C@@H](CCCCN)C(=O)N[C@@H](CCCCNC(=O)CCC(=O)O[C@H]1CC[C@@]2(C)C(=CC[C@H]3[C@@H]4CC[C@H]([C@H](C)CCCC(C)C)[C@@]4(C)CC[C@@H]32)C1)C(N)=O` [Compound 13] (Ac-WDEFDKKIEEVNKKIEESLKKIEESDKKLEAAAKK(Succinyl(4-O-cholesteryl))-NH2) gave a Kd on hPIV-N51 (139-189) of 2280 nM. The results for the EC50 in the test on hMPV A2 and with hMPV B1 were 11.7 nM and 6.18 nM, respectively.
